In patent US7358379B2, “Steroid conjugates, preparation thereof and the use thereof” (Bionature E.A. Limited, priority 2002, dated 2008):

How the values were obtained:
[1] = test system: membrane testosterone receptors in LNCaP cells; test: Displacement binding of [3H]testosterone on LNCaP cell membranes; parameters: species or system human; details: 5 nM [3H]testosterone, competitor 10^-12-10^-6 M
Description: (§1) Cells, cultured in 150 cm^2 flasks without serum, were washed twice with phosphate-buffered saline (PBS), removed by scraping and centrifuged at 1500 rpm. Pelleted cells were homogenized by sonication in 50 mM Tris-HCl buffer pH 7.4 containing freshly added protease inhibitors (10 μg/ml PMSF and 1 μg/ml aprotinin). Unbroken cells were removed by centrifugation at 2500 g for 15 min. Membranes were obtained by centrifugation at 45,000 g for 1 hour, and washed once by the same buffer. Protein concentration was measured by the method of Bradford.
(§2) Saturation binding experiments were performed in a final volume of 0.1 ml, containing cell membranes at a final protein concentration of 2 mg/ml and at least 6 different concentrations of [^3H]testosterone (ranging 2-50 nM) without (total binding) or with (non-specific binding) a 100-fold molar excess of unlabelled androgen (DHT). […] In both types of binding experiments, after an overnight incubation at 4° C., bound radioactivity was separated by filtration under reduced pressure through GF/B filters previously soaked in 0.5% polyethylenimine (PEI) in water and rinsed three times with ice-cold Tris-HCl buffer. Filters were mixed with 4 ml scintillation cocktail and the bound radioactivity was counted in a scintillation counter (Tricarb, Series 4000, Packard) with 60% efficiency for Tritium. […]

[2] = test system: membrane testosterone receptors in LNCaP cells; test: Saturation binding of [3H]testosterone to LNCaP cell membranes; parameters: species or system human; details: [3H]testosterone 2-50 nM, LNCaP membranes 2 mg/ml, overnight 4° C., non-specific binding with excess DHT; read-out: KD (Scatchard analysis)
Description: as §1, §2

[3] = test system: FAK→PI-3 kinase→Cdc42/Rac1→actin reorganization in LNCaP cells; test: Signalling FAK, PI-3 kinase, Cdc42/Rac1, actin reorganization (immunoprecipitation, kinase assays, affinity precipitation); format: cell-based, human
Description: Testosterone-BSA or DHT-treated, as well as untreated (control) cells were washed three times with ice-cold PBS and suspended in cold lysis buffer containing 1% Nonidet P-40, 20 mM Tris pH 7.4 and 137 mM NaCl, supplemented with protease and phosphatase inhibitors. Cleared lysates were preadsorbed with protein A-Sepharose for 1 h at 4° C., centrifuged and the supernatants (equal amounts of protein) were subjected to immunoprecipitation using the indicated antibodies and the protein A-Sepharose beads.
The lipid kinase activity of PI-3 kinase was measured by the method of Auger et al with minor modifications. Protein A-Sepharose beads containing immunoprecipitated phosphotyrosine proteins were washed three times with Buffer A (20 mM Tris pH 7.4, 137 mM NaCl, 1 mM CaCl2, 1 mM MgCl2, 1% Nonidet P-40, 0.1 mM Na3VO4), three times with 5 mM LiCl in 0.1 M Tris (pH 7.4) and twice with TNE (10 mM Tris pH 7.4, 150 mM NaCl, 5 mM EDTA, 0.1 mM Na3VO4). […]
For immunoblot analysis, the cell lysates or the immunoprecipitates were suspended in Laemmli's sample buffer and separated by SDS-PAGE. […] Blots were developed using the ECL system and the band intensities were quantified by PC-based image analysis (Image Analysis Inc., Ontario, Canada). […]

[4] = test system: prostate cancer LNCaP cells; test: Cell number by tetrazolium salt assay; format: cell-based, human; details: 24 hours
Description: The human prostate cancer LNCaP cell line, originally isolated from a lymph node metastasis of prostate adenocarcinoma, was purchased from DSMZ (Braunschweig, Germany). Cells were cultured in RPMI 1640 medium supplemented with 10% heat inactivated fetal bovine serum (FBS) at 37° C. in a humidified atmosphere of 5% CO2 in air. They were subcultured once a week and incubated in serum-free medium for 24 h before any experiment. All culture media were purchased from Gibco BRL (Life Technologies, Paisley, UK).
Cell number was assayed using the tetrazolium salt assay. Cells were incubated for 3 h at 37° C. with the tetrazolium salt (3-(4,5 dimethylthiazol-2-yl)-2,5 diphenyl tetrazolium bromide, Sigma, St Louis, Mo.). Living cells reduced the dye to purple formazan seen as dark blue crystals. At the end of the incubation period they were dissolved with propanol-1 and the absorbance was measure at 575 nm, within one hour.
In view of the above results, we incubated prostate cancer LNCaP cells with testosterone-BSA alone (10^−7 M) or together with Taxol® (10^−8 M) for 24 hours. […] In addition, a potentiation of the action of Taxol® by ˜7% was also found. […]

LNCaP cells = test: Confocal laser microscopy of membrane binding on LNCaP cells; format: cell-based, human; details: 30 min incubation
Description: LNCaP cells were allowed to grow on poly-L-lysine coated glass coverslips for at least 48 hours before culture medium was replaced with serum free medium. After a 24-hour period, cells were washed twice with PBS and incubated with Testosterone-BSA-FITC for 30 min in the presence or in the absence of DHT. As a negative control BSA-FITC was used. Cells were then washed twice with PBS and fixed with 2% PFA in PBS for 30 min. Coverslips were mounted on to slides using a 1:1 (v/v) mixture of glycerol and Vestashield (Vector, Burlingame, Calif.). Specimens were analysed using a confocal laser scanning microscope (CLSM) (Leica TCS-NT, Lasertechnik, Heidelberg, Germany).
(§3) The presence of membrane testosterone receptors was equally identified using the testosterone analog testosterone3-(O-carboxymethyl)oxime-BSA-FITC, obtained from Sigma (St Louis, Mo.). This analog is not capable to penetrate the cells, because of a covalent attachment of the steroid with BSA. […] The membrane binding was equally verified by confocal laser microscopy, as shown in the right panel of FIG. 2.

[5] = test system: membrane testosterone receptors in LNCaP cells; test: Flow cytometry detection of membrane binding on LNCaP cells; parameters: species or system human; details: 10^-7 M
Description: LNCaP cells, cultured in serum free medium for 24 hrs, were detached from the culture flask by scraping and suspended in PBS at a density of 10^6 cells/ml. They were incubated at room temperature with 10^−7 M testosterone-BSA-FITC conjugate for different periods of time (1 min to 1 hour). A thousand-fold BSA-FITC was used to determine non-specific binding. Cells were analysed by flow cytometry using a Coulter Epics L-MCL apparatus (Beckman-Coulter Inc. Foullerton Calif., USA) in a sample size of 10,000 cells gated on the basis of forward and side scatter. Testosterone3-(O-carboxymethyl)oxime-BSA-FITC (named testosterone-BSA-FITC), testosterone3-(O-carboxymethyl)oxime-BSA (named testosterone-BSA), estradiol6-(O-carboxymethyl)oxime-BSA-FITC (named estradiol-BSA-FITC), progesterone3-(O-carboxymethyl)oxime-BSA-FITC (named progesterone-BSA-FITC) and BSA-FITC were obtained from Sigma (St Louis, Mo.).
as §3

[6] = test system: actin cytoskeleton of LNCaP human prostate cancer cells; test: Determination of monomeric and polymerized actin; format: cell-based; details: 10^-7 M, 10 min
Description: For measurements of the monomeric (Triton soluble) and polymerized (Triton insoluble) actin, LNCaP cells were incubated for 10 min with or without DHT or testosterone-BSA (10^−7 M). Then, 500 μl of Triton-extraction buffer (0.3% TritonX-100, 5 mM Tris, pH 7.4, 2 mM EGTA, 300 mM sucrose, 2 μM phalloidin, 1 mM PMSF, 10 μg/ml leupeptin, 20 μg/ml aprotinin, 1 mM sodium orthovanadate, and 50 mM NaF) were added, and the mixture was incubated for 5 minutes on ice. After removing the buffer, soluble proteins were precipitated with equal volumes of 6% PCA. The Triton-insoluble fraction remaining on the plate was precipitated with 1 ml of 3% PCA. Equal volumes of each fraction were subjected to SDS-polyacrylamide gel electrophoresis (SDS-PAGE). The resulting protein-bands were transferred onto nitrocellulose membrane, and the membrane was blocked with 5% nonfat dry milk in TBS-T (20 mM Tris pH 7.6, 137 mM NaCl, 0.05% Tween-20) for 1 h at room temperature. Antibody solutions (in TBS-T) were added for 1 h at room temperature [monoclonal mouse anti-actin first antibody (Amersham-Pharmacia, Bukinghamshire, UK) and second horseradish peroxidase-coupled antibody (Chemicon, Temecula, Calif.)]. Blots were developed using the ECL system (Amersham-Pharmacia, Bukinghamshire, UK) and the band intensities were quantified by PC-based image analysis (Image Analysis Inc., Ontario, Canada). […]

[7] = test system: LNCaP tumors in nude mice; test: In vivo effect in nude mice bearing implanted LNCaP tumors; details: four weeks
Description: FIG. 9 presents the effect of testosterone-BSA administration in nude mice, bearing implanted tumors. Arrows show the injection times of testosterone-BSA (500 μl of a 5×10^−6 M solution) with or without addition of 10 mg/kg Taxol®.
Nude mice were injected in the back with 5×10^6 LNCaP cells diluted in Matrigel® (Sigma, St Louis, Mo.) in a total volume of 0.1 ml. After 4 weeks, macroscopical tumors were developed, and treatment was initiated, as follows: Drugs, diluted in PBS were injected intraperitoneally 3 times per week, in a total volume of 0.5 ml. Animals were divided in four groups: The first group received 5×10^−6 M BSA. The second group was injected with 5×10^−6 M testosterone-BSA conjugate. The third group was injected with 10 mg/ml Taxol®, while in the fourth group a combination of testosterone-BSA and Taxol® was introduced. Tumors were measured after four weeks of treatment. Tumors were excised, measured, weighted and send to a pathologist for further analysis.
As presented in FIG. 9, testosterone-BSA induced a time-dependent decrease in tumor mass by 53%. Addition of Taxol® produces a dramatic decrease of tumor weight by 77%. […] Therefore it is possible that the decrease if tumor mass could be greater for longer periods of treatment In addition, apoptosis was observed histologically in all tumors studied.

Which “displacement of radiolabeled testosterone” value [1] does the source give for `C[C@]12CCC(=O)C[C@@H]1CC[C@@H]1[C@@H]2CC[C@]2(C)[C@@H](O)CC[C@@H]12` [DHT] here?
Its value is “produced a displacement of radiolabeled testosterone”.

For `CC(=O)[C@H]1CC[C@H]2[C@@H]3CCC4=CC(=O)CC[C@]4(C)[C@H]3CC[C@]12C` [progesterone], which “lower affinity in displacing radiolabelled testosterone (fold)” value ([1]; compared with DHT) is on record?
Its value is 10^2 fold.

With `C[C@]12CC[C@H]3[C@@H](CCC4=CC(=O)CC[C@@]43C)[C@@H]1CC[C@@H]2O` [testosterone] as the molecule, how does the Kd [2] read?
The Kd was 10.9 nM.

And the “activation of signalling cascade FAK→PI-3 kinase→Cdc42/Rac1→actin reorganization” value [3]?
The value was “less active than testosterone-BSA conjugate”.

Which results are given for “testosterone3-(O-carboxymethyl)oxime-BSA [testosterone-BSA]”?
potentiation of the action of Taxol® ([4]; testosterone-BSA 10^-7 M together with Taxol® 10^-8 M): ~7%; decrease of cells ([4]; testosterone-BSA alone 10^-7 M): 50%; localisation of staining (internalization) (LNCaP cells): only membrane staining was found; time at which association with membrane receptors was observed ([5]; flow cytometry): 1 min; time at which association with membrane receptors was maximal ([5]; flow cytometry, unchanged after 30 min): 10 min; membrane binding by flow cytometry ([5]; room temperature): specific membrane binding; ratio of soluble (monomeric) to insoluble (polymerised) actin [6]: significant decrease; decrease in tumor mass ([7]; nude mice with LNCaP tumors, testosterone-BSA 5×10^-6 M i.p. 3 times per week): 53%; decrease of tumor weight ([7]; nude mice with LNCaP tumors, testosterone-BSA 5×10^-6 M with addition of Taxol®, i.p. 3 times per week): 77%; tolerance of treatment ([7]; nude mice, 0.5 ml of 5×10^-6 M intraperitoneally 3 times per week): supported very well
